Reference: PubChem BioAssay (NCI)
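In this assay, cells in 96-well plates receive the compound at five concentrations for 48 hours. Endpoints are linearly interpolated between the surrounding concentrations. Here, GI50 denotes the concentration required for 50% inhibition of growth. TGI: total growth inhibition.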

Experiments:
Test in all cases: NCI tumour cell line growth inhibition, 48 h
SW-620 colon = system: SW-620 colon
T-47D breast = system: T-47D breast
HOP-62 NSCLC = system: HOP-62 NSCLC
LOX IMVI melanoma = system: LOX IMVI melanoma
NCI-H460 lung = system: NCI-H460 lung
OVCAR-3 ovarian = system: OVCAR-3 ovarian
SF-539 CNS = system: SF-539 CNS
SK-MEL-28 melanoma = system: SK-MEL-28 melanoma
A549 NSCLC = system: A549 NSCLC
NCI-H226 lung = system: NCI-H226 lung
BT-549 breast = system: BT-549 breast
MCF7 breast = system: MCF7 breast
DU-145 prostate = system: DU-145 prostate
KM12 colon = system: KM12 colon
PC-3 prostate = system: PC-3 prostate
NCI/ADR-RES ovarian = system: NCI/ADR-RES ovarian
TK-10 renal = system: TK-10 renal
HCT-116 colon = system: HCT-116 colon
MDA-MB-231 breast = system: MDA-MB-231 breast
OVCAR-4 ovarian = system: OVCAR-4 ovarian
OVCAR-8 ovarian = system: OVCAR-8 ovarian
SK-OV-3 ovarian = system: SK-OV-3 ovarian
MOLT-4 leukemia = system: MOLT-4 leukemia
NCI-H23 lung = system: NCI-H23 lung
SK-MEL-5 melanoma = system: SK-MEL-5 melanoma
SR leukemia = system: SR leukemia
HCC-2998 colon = system: HCC-2998 colon
K-562 leukemia = system: K-562 leukemia
OVCAR-5 ovarian = system: OVCAR-5 ovarian
NCI-H522 lung = system: NCI-H522 lung
HS 578T breast = system: HS 578T breast
UACC-62 melanoma = system: UACC-62 melanoma
HT29 colon = system: HT29 colon
786-0 renal = system: 786-0 renal
SNB-19 CNS = system: SNB-19 CNS
HCT-15 colon = system: HCT-15 colon
RPMI-8226 leukemia = system: RPMI-8226 leukemia
SK-MEL-2 melanoma = system: SK-MEL-2 melanoma
RXF 393 renal = system: RXF 393 renal
SN12C renal = system: SN12C renal
IGROV1 ovarian = system: IGROV1 ovarian
UACC-257 melanoma = system: UACC-257 melanoma
MALME-3M melanoma = system: MALME-3M melanoma
A498 renal = system: A498 renal
MDA-MB-435 = system: MDA-MB-435
U251 CNS = system: U251 CNS
EKVX NSCLC = system: EKVX NSCLC
SF-295 CNS = system: SF-295 CNS
SF-268 CNS = system: SF-268 CNS
SNB-75 CNS = system: SNB-75 CNS
UO-31 renal = system: UO-31 renal
CCRF-CEM leukemia = system: CCRF-CEM leukemia
HL-60(TB) leukemia = system: HL-60(TB) leukemia
HOP-92 NSCLC = system: HOP-92 NSCLC
M14 melanoma = system: M14 melanoma

## C[C@@H]1CN(C(=O)c2ccc(NC(=O)c3cc(O[C@H](C)c4c(Cl)ccc(F)c4Cl)c(N)nn3)cc2)C[C@H](C)N1
SW-620 colon
  GI50: 2.29 µM
  TGI: 12.6 µM
T-47D breast
  GI50: 4.51 µM
  TGI: 20.5 µM
HOP-62 NSCLC
  GI50: 2.5 µM
  TGI: 14.4 µM
LOX IMVI melanoma
  GI50: 1.46 µM
  TGI: 3.04 µM
NCI-H460 lung
  GI50: 3.1 µM
  TGI: 13.7 µM
OVCAR-3 ovarian
  GI50: 6.44 µM
  TGI: 19 µM
SF-539 CNS
  GI50: 2.21 µM
  TGI: 5.07 µM
SK-MEL-28 melanoma
  GI50: 1.75 µM
  TGI: 3.86 µM
A549 NSCLC
  GI50: 3.03 µM
  TGI: 15.8 µM
NCI-H226 lung
  GI50: 3.9 µM
  TGI: 22.5 µM
BT-549 breast
  GI50: 5.14 µM
  TGI: 16.5 µM
MCF7 breast
  GI50: 0.567 µM
  TGI: 12.6 µM
DU-145 prostate
  GI50: 6.7 µM
  TGI: 19.2 µM
KM12 colon
  GI50: 0.0558 µM
  TGI: 13.5 µM
PC-3 prostate
  GI50: 3.65 µM
  TGI: 16.7 µM
NCI/ADR-RES ovarian
  GI50: 11.7 µM
  TGI: 31.1 µM
TK-10 renal
  GI50: 11.5 µM
  TGI: 23.6 µM
HCT-116 colon
  GI50: 1.46 µM
  TGI: 10.7 µM
MDA-MB-231 breast
  GI50: 2.1 µM
  TGI: 8 µM
OVCAR-4 ovarian
  GI50: 8.84 µM
  TGI: 24.1 µM
OVCAR-8 ovarian
  GI50: 7.16 µM
  TGI: 19.7 µM
SK-OV-3 ovarian
  GI50: 11.1 µM
  TGI: 23.1 µM
MOLT-4 leukemia
  GI50: 0.907 µM
  TGI: 10.4 µM
NCI-H23 lung
  GI50: 3.17 µM
  TGI: 20.6 µM
SK-MEL-5 melanoma
  GI50: 1.55 µM
  TGI: 3.44 µM
SR leukemia
  GI50: 0.0104 µM
  TGI: 2.78 µM
HCC-2998 colon
  GI50: 14.5 µM
  TGI: 29.1 µM
K-562 leukemia
  GI50: 0.37 µM
  TGI: 10.2 µM
OVCAR-5 ovarian
  GI50: 2.76 µM
  TGI: 17.6 µM
NCI-H522 lung
  GI50: 3.1 µM
  TGI: 12.2 µM
HS 578T breast
  GI50: 3.02 µM
  TGI: 21.9 µM
UACC-62 melanoma
  GI50: 1.7 µM
  TGI: 5.24 µM
HT29 colon
  GI50: 1.19 µM
  TGI: 3.46 µM
786-0 renal
  GI50: 4.63 µM
  TGI: 15.7 µM
SNB-19 CNS
  GI50: 5.41 µM
  TGI: 18.1 µM
HCT-15 colon
  GI50: 3.92 µM
  TGI: 15.1 µM
RPMI-8226 leukemia
  GI50: 2.37 µM
  TGI: 8.17 µM
SK-MEL-2 melanoma
  GI50: 5.57 µM
  TGI: 19.6 µM
RXF 393 renal
  GI50: 1.93 µM
  TGI: 5.29 µM
SN12C renal
  GI50: 2.41 µM
  TGI: 13.6 µM
IGROV1 ovarian
  GI50: 4.38 µM
  TGI: 20.4 µM
UACC-257 melanoma
  GI50: 1.39 µM
  TGI: 3.2 µM
MALME-3M melanoma
  GI50: 0.808 µM
  TGI: 2.94 µM
A498 renal
  GI50: 1 µM
  TGI: 5.33 µM
MDA-MB-435
  GI50: 1.88 µM
  TGI: 16.8 µM
U251 CNS
  GI50: 3.4 µM
  TGI: 12.9 µM
EKVX NSCLC
  GI50: 5.66 µM
  TGI: 21.3 µM
SF-295 CNS
  GI50: 1.11 µM
  TGI: 10.5 µM
SF-268 CNS
  GI50: 4.5 µM
  TGI: 17.7 µM
SNB-75 CNS
  GI50: 2.8 µM
  TGI: 11.1 µM
UO-31 renal
  GI50: 3.26 µM
  TGI: 14 µM
CCRF-CEM leukemia
  GI50: 1.78 µM
  TGI: 12 µM
HL-60(TB) leukemia
  GI50: 1.21 µM
  TGI: 3.3 µM
HOP-92 NSCLC
  GI50: 0.722 µM
  TGI: 5.18 µM
M14 melanoma
  GI50: 1.55 µM
  TGI: 3.19 µM
